{"source": "patent US6355799B1", "about": "“Substituted benzene compounds, process for their preparation, and herbicidal and defoliant compositions containing them” (ISK Americas Incorporated, priority 1997, dated 2002)", "format_in_all_cases": "in vivo", "key": {"[1]": {"tested_on": "field corn (Zea mays L., var. Dekalb 535, CORN)", "assay": "Pre-emerge test, crop safety", "conditions": "pre-emerge, rated 14 days after application, 0 = no damage, 100 = complete death", "how_it_was_run": "(§1)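 Compounds in acetone were track-sprayed at 187 l/ha, 15–1000 g ai/ha, onto sandy loam pots. Pre-emerge seeds were sown one day before spraying, with surface watering afterwards. Post-emerge plants were at the 2–3 leaf stage and sprayed with 0.25% v/v non-ionic surfactant. Injury was rated 0–100 at 14 days.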"}, "[2]": {"tested_on": "upland rice (Oryza sp., var. Tebonnet, RICE)", "assay": "Pre-emerge test, crop safety", "conditions": "pre-emerge, rated 14 days after application, 0 = no damage, 100 = complete death", "how_it_was_run": "as §1"}, "[3]": {"tested_on": "barnyardgrass (Echinochloa crus-galli, ECHCG)", "assay": "Post-emerge test, greenhouse herbicide activity screening", "conditions": "phytotoxicity rating 0-100 (0 no damage, 100 complete death), 14 days after application", "how_it_was_run": "(§2)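 Fourteen days after spraying, crop and weed injury was graded visually from 0, no effect, to 100, every plant dead. Test substances were dissolved in acetone and applied at 15–1000 g ai/ha with a flat-fan nozzle. Application was either pre-emergence, one day after sowing, or post-emergence at the 2–3 leaf stage.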"}, "[4]": {"tested_on": "johnsongrass (Sorghum halepense, SORHA)", "assay": "Post-emerge test, greenhouse herbicide activity screening", "conditions": "phytotoxicity rating 0-100 (0 no damage, 100 complete death), 14 days after application", "how_it_was_run": "as §2"}, "[5]": {"tested_on": "redroot pigweed (Amaranthus retroflexus, AMARE)", "assay": "Post-emerge test, greenhouse herbicide activity screening", "conditions": "phytotoxicity rating 0-100 (0 no damage, 100 complete death), 14 days after application", "how_it_was_run": "as §2"}, "[6]": {"tested_on": "green foxtail (Setaria viridis, SETVI)", "assay": "Post-emerge test, greenhouse herbicide activity screening", "conditions": "phytotoxicity rating 0-100 (0 no damage, 100 complete death), 14 days after application", "how_it_was_run": "as §2"}, "[7]": {"tested_on": "ivyleaf morningglory (Ipomoea hederacea, IPOHE)", "assay": "Post-emerge test, greenhouse herbicide activity screening", "conditions": "phytotoxicity rating 0-100 (0 no damage, 100 complete death), 14 days after application", "how_it_was_run": "as §2"}, "[8]": {"tested_on": "velvetleaf (Abutilon theophrasti, ABUTH)", "assay": "Post-emerge test, greenhouse herbicide activity screening", "conditions": "phytotoxicity rating 0-100 (0 no damage, 100 complete death), 14 days after application", "how_it_was_run": "as §2"}, "[9]": {"tested_on": "large crabgrass (Digitaria sanguinalis, DIGSA)", "assay": "Post-emerge test, greenhouse herbicide activity screening", "conditions": "phytotoxicity rating 0-100 (0 no damage, 100 complete death), 14 days after application", "how_it_was_run": "as §2"}, "[10]": {"tested_on": "sicklepod (Cassia obtusifolia, CASOB)", "assay": "Post-emerge test, greenhouse herbicide activity screening", "conditions": "phytotoxicity rating 0-100 (0 no damage, 100 complete death), 14 days after application", "how_it_was_run": "as §2"}, "[11]": {"tested_on": "lambsquarters (Chenopodium album, CHEAL)", "assay": "Post-emerge test, greenhouse herbicide activity screening", "conditions": "phytotoxicity rating 0-100 (0 no damage, 100 complete death), 14 days after application", "how_it_was_run": "as §2"}, "[12]": {"tested_on": "field corn (Zea mays L., var. Dekalb 535, CORN)", "assay": "Post-emerge test, crop safety", "conditions": "phytotoxicity rating 0-100 (0 no damage, 100 complete death), 14 days after application", "how_it_was_run": "as §1"}, "[13]": {"tested_on": "upland rice (Oryza sp., var. Tebonnet, RICE)", "assay": "Post-emerge test, crop safety", "conditions": "phytotoxicity rating 0-100 (0 no damage, 100 complete death), 14 days after application", "how_it_was_run": "as §1"}, "[14]": {"tested_on": "redroot pigweed (Amaranthus retroflexus, AMARE)", "assay": "Pre-emerge test, greenhouse herbicide activity screening", "conditions": "pre-emerge, rated 14 days after application, 0 = no damage, 100 = complete death", "how_it_was_run": "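Herbicidal damage is scored 0 (none) to 100 (complete plant death) two weeks after a simulated field spray. Rates span 15–1000 g ai/ha, delivered in acetone at 187 l/ha. For post-emergence treatments, plants have 2–3 leaves and the spray carries 0.25% v/v non-ionic surfactant.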"}, "[15]": {"tested_on": "barnyardgrass (Echinochloa crus-galli, ECHCG)", "assay": "Pre-emerge test, greenhouse herbicide activity screening", "conditions": "pre-emerge, rated 14 days after application, 0 = no damage, 100 = complete death", "how_it_was_run": "as §1"}, "[16]": {"tested_on": "johnsongrass (Sorghum halepense, SORHA)", "assay": "Pre-emerge test, greenhouse herbicide activity screening", "conditions": "pre-emerge, rated 14 days after application, 0 = no damage, 100 = complete death", "how_it_was_run": "as §1"}, "[17]": {"tested_on": "green foxtail (Setaria viridis, SETVI)", "assay": "Pre-emerge test, greenhouse herbicide activity screening", "conditions": "pre-emerge, rated 14 days after application, 0 = no damage, 100 = complete death", "how_it_was_run": "as §1"}, "[18]": {"tested_on": "ivyleaf morningglory (Ipomoea hederacea, IPOHE)", "assay": "Pre-emerge test, greenhouse herbicide activity screening", "conditions": "pre-emerge, rated 14 days after application, 0 = no damage, 100 = complete death", "how_it_was_run": "as §1"}, "[19]": {"tested_on": "velvetleaf (Abutilon theophrasti, ABUTH)", "assay": "Pre-emerge test, greenhouse herbicide activity screening", "conditions": "pre-emerge, rated 14 days after application, 0 = no damage, 100 = complete death", "how_it_was_run": "as §1"}, "[20]": {"tested_on": "large crabgrass (Digitaria sanguinalis, DIGSA)", "assay": "Pre-emerge test, greenhouse herbicide activity screening", "conditions": "pre-emerge, rated 14 days after application, 0 = no damage, 100 = complete death", "how_it_was_run": "as §1"}, "[21]": {"tested_on": "sicklepod (Cassia obtusifolia, CASOB)", "assay": "Pre-emerge test, greenhouse herbicide activity screening", "conditions": "pre-emerge, rated 14 days after application, 0 = no damage, 100 = complete death", "how_it_was_run": "as §1"}, "[22]": {"tested_on": "lambsquarters (Chenopodium album, CHEAL)", "assay": "Pre-emerge test, greenhouse herbicide activity screening", "conditions": "pre-emerge, rated 14 days after application, 0 = no damage, 100 = complete death", "how_it_was_run": "as §1"}}}
{"compound": "C=CC(=O)N(C(=O)C=C)c1c(OC)c(Cl)cc(F)c1-n1c(=O)cc(C(F)(F)F)n(C)c1=O", "note": "[2-4]", "values": [{"measurement": "Pre-emerge crop damage CORN (phytotoxicity rating, scale 0-100)", "setting": "[1]; 63 g ai/ha", "value": 0}, {"measurement": "Pre-emerge crop damage CORN (phytotoxicity rating, scale 0-100)", "setting": "[1]; 250 g ai/ha", "value": 20}, {"measurement": "Pre-emerge crop damage RICE (phytotoxicity rating, scale 0-100)", "setting": "[2]; 63 g ai/ha", "value": 0}, {"measurement": "Pre-emerge crop damage RICE (phytotoxicity rating, scale 0-100)", "setting": "[2]; 250 g ai/ha", "value": 10}, {"measurement": "Post-emerge Herbicidal Activity ECHCG", "setting": "[3]; 63 g ai/ha", "value": 0}, {"measurement": "Post-emerge Herbicidal Activity ECHCG", "setting": "[3]; 250 g ai/ha", "value": 0}, {"measurement": "Post-emerge Herbicidal Activity SORHA", "setting": "[4]; 63 g ai/ha", "value": 10}, {"measurement": "Post-emerge Herbicidal Activity SORHA", "setting": "[4]; 250 g ai/ha", "value": 10}, {"measurement": "Post-emerge Herbicidal Activity AMARE", "setting": "[5]; 63 g ai/ha", "value": 0}, {"measurement": "Post-emerge Herbicidal Activity AMARE", "setting": "[5]; 250 g ai/ha", "value": 70}, {"measurement": "Post-emerge Herbicidal Activity SETVI", "setting": "[6]; 63 g ai/ha", "value": 0}, {"measurement": "Post-emerge Herbicidal Activity SETVI", "setting": "[6]; 250 g ai/ha", "value": 0}, {"measurement": "Post-emerge Herbicidal Activity IPOHE", "setting": "[7]; 63 g ai/ha", "value": 0}, {"measurement": "Post-emerge Herbicidal Activity IPOHE", "setting": "[7]; 250 g ai/ha", "value": 20}, {"measurement": "Post-emerge Herbicidal Activity ABUTH", "setting": "[8]; 63 g ai/ha", "value": 0}, {"measurement": "Post-emerge Herbicidal Activity ABUTH", "setting": "[8]; 250 g ai/ha", "value": 50}, {"measurement": "Post-emerge Herbicidal Activity DIGSA", "setting": "[9]; 63 g ai/ha", "value": 0}, {"measurement": "Post-emerge Herbicidal Activity DIGSA", "setting": "[9]; 250 g ai/ha", "value": 0}, {"measurement": "Post-emerge Herbicidal Activity CASOB", "setting": "[10]; 63 g ai/ha", "value": 0}, {"measurement": "Post-emerge Herbicidal Activity CASOB", "setting": "[10]; 250 g ai/ha", "value": 0}, {"measurement": "Post-emerge Herbicidal Activity CHEAL", "setting": "[11]; 63 g ai/ha", "value": 50}, {"measurement": "Post-emerge Herbicidal Activity CHEAL", "setting": "[11]; 250 g ai/ha", "value": 50}, {"measurement": "Post-emerge Herbicidal Activity CORN (crop damage)", "setting": "[12]; 63 g ai/ha", "value": 0}, {"measurement": "Post-emerge Herbicidal Activity CORN (crop damage)", "setting": "[12]; 250 g ai/ha", "value": 0}, {"measurement": "Post-emerge Herbicidal Activity RICE (crop damage)", "setting": "[13]; 63 g ai/ha", "value": 0}, {"measurement": "Post-emerge Herbicidal Activity RICE (crop damage)", "setting": "[13]; 250 g ai/ha", "value": 0}, {"measurement": "Pre-emerge Herbicidal Activity AMARE (phytotoxicity rating, scale 0-100)", "setting": "[14]; 63 g ai/ha", "value": 80}, {"measurement": "Pre-emerge Herbicidal Activity AMARE (phytotoxicity rating, scale 0-100)", "setting": "[14]; 250 g ai/ha", "value": 95}, {"measurement": "Pre-emerge Herbicidal Activity ECHCG (phytotoxicity rating, scale 0-100)", "setting": "[15]; 63 g ai/ha", "value": 0}, {"measurement": "Pre-emerge Herbicidal Activity ECHCG (phytotoxicity rating, scale 0-100)", "setting": "[15]; 250 g ai/ha", "value": 0}, {"measurement": "Pre-emerge Herbicidal Activity SORHA (phytotoxicity rating, scale 0-100)", "setting": "[16]; 63 g ai/ha", "value": 0}, {"measurement": "Pre-emerge Herbicidal Activity SORHA (phytotoxicity rating, scale 0-100)", "setting": "[16]; 250 g ai/ha", "value": 0}, {"measurement": "Pre-emerge Herbicidal Activity SETVI (phytotoxicity rating, scale 0-100)", "setting": "[17]; 63 g ai/ha", "value": 0}, {"measurement": "Pre-emerge Herbicidal Activity SETVI (phytotoxicity rating, scale 0-100)", "setting": "[17]; 250 g ai/ha", "value": 80}, {"measurement": "Pre-emerge Herbicidal Activity IPOHE (phytotoxicity rating, scale 0-100)", "setting": "[18]; 63 g ai/ha", "value": 20}, {"measurement": "Pre-emerge Herbicidal Activity IPOHE (phytotoxicity rating, scale 0-100)", "setting": "[18]; 250 g ai/ha", "value": 70}, {"measurement": "Pre-emerge Herbicidal Activity ABUTH (phytotoxicity rating, scale 0-100)", "setting": "[19]; 63 g ai/ha", "value": 30}, {"measurement": "Pre-emerge Herbicidal Activity ABUTH (phytotoxicity rating, scale 0-100)", "setting": "[19]; 250 g ai/ha", "value": 100}, {"measurement": "Pre-emerge Herbicidal Activity DIGSA (phytotoxicity rating, scale 0-100)", "setting": "[20]; 63 g ai/ha", "value": 0}, {"measurement": "Pre-emerge Herbicidal Activity DIGSA (phytotoxicity rating, scale 0-100)", "setting": "[20]; 250 g ai/ha", "value": 50}, {"measurement": "Pre-emerge Herbicidal Activity CASOB (phytotoxicity rating, scale 0-100)", "setting": "[21]; 63 g ai/ha", "value": 0}, {"measurement": "Pre-emerge Herbicidal Activity CASOB (phytotoxicity rating, scale 0-100)", "setting": "[21]; 250 g ai/ha", "value": 0}, {"measurement": "Pre-emerge Herbicidal Activity CHEAL (phytotoxicity rating, scale 0-100)", "setting": "[22]; 63 g ai/ha", "value": 50}, {"measurement": "Pre-emerge Herbicidal Activity CHEAL (phytotoxicity rating, scale 0-100)", "setting": "[22]; 250 g ai/ha", "value": 100}]}
